The text below walks through data of patent US10512667B2, “Compositions and methods for treating conditions related to adrenocortical activity and/or excessive steroid production” (The Regents of the University of Michigan, priority 2017, dated 2019).

The target in one data set is T1, MDR1 (Homo sapiens, UniProt P08183).
T1 construct: measured the accumulation of doxorubicin in H295R cells; endogenous in cells; host or cells: H295R adrenocortical carcinoma cells
The following applies: cited from earlier work.

Another data set relates to adrenal cortex. As to conditions: WHHL rabbits; cited from earlier work.
The test system of data set [1] is H295R cells. Kind of data set: Cholesterol crystallization and extracellular cholesterol associated with cells. As to conditions: compound in combination with ATR-101. It is filed as cell-based. The protocol:
To quantify cholesterol crystallization, experiments were conducted that measured the total extracellular cholesterol that was associated with the cells. After culturing cells with the indicated compounds, the culture medium was removed. Medium lacking cholesterol was added to the cells, and the extracellular cholesterol that was released into the wash medium was collected after 30 seconds. To establish if the cholesterol that was released from the cells was exported by ABCA1, the wash step was performed in parallel using media with and without 50 μM glibenclamide, which inhibits ABCA1 activity. The total amount of cell-associated cholesterol that was released into the wash medium was measured using a fluorometric enzyme-linked assay (Cayman Chemical). Cholesterol esters were hydrolyzed using cholesterol esterase. Cholesterol was oxidized by cholesterol oxidase, producing hydrogen peroxide. The hydrogen peroxide was reacted with 10-acetyl-3,7-dihydroxyphenoxazine (ADHP) in the presence of horseradish peroxidase to produce resorufin. Resorufin fluorescence was measured using 555 nm exitation and 590 nm emission wavelengths in a SpectraMax M5 microplate reader (Molecular Devices).
The medium was removed and replaced with 50 μl serum-free medium supplemented with 5 μg/mL apo-AI (without or with 50 μM glyburide to detect ABCA1 transporter-dependent efflux) for either 30 sec or 1 h at 37 C in 5% CO2 atmosphere. After the indicated time, the supernatant, was transferred to a new 96-well plate and a fluorometric-base cholesterol detection assay cocktail was added.

The test system of data set [2] is H295R cells. Kind of data set: Visualization of cholesterol levels by filipin III binding. Type of data set: cell-based. The gist of the method: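 Cells adhered 48 h, treated with compounds, fixed in 4% paraformaldehyde 20 min, then stained with 100 μg/ml filipin III for 2 h at 37 C in the dark and imaged. Esterification visualized after 2 h culture with 1 μM NBD-cholesterol following compound incubation.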

For data set [3], the system named is H295R cells. As to the kind of experiment: Caspase 3/7 activity (Apo-ONE). Type of data set: cell-based. The following applies: for caspase 3/7 activity, compound alone: serum-containing medium. How it is done: The samples were incubated for 18 h at room temperature in the dark. The fluorescence was measured using a SpectraMax M5 microplate reader with a 0.5 s acquisition time.

Data set [4] relates to H295R cells. Kind of data set: Resazurin reducing potential. The following applies: 32 μM ATR-101 with 2 mM MβCD. Type of data set: cell-based. The protocol:
FIG. 4F: […] The cells were cultured with DMSO vehicle or 32 μM ATR-101 alone, or together with 2 mM MβCD. Resazurin fluorescence intensity was measured using a microplate reader at the indicated times at 37 C. The background signal of wells without resazurin was subtracted. […] DMSO control, *P<0.05).
(In general: The colour change of resazurin is a common sign of viable cells or microbes.)

Data set [5] has as its system H295R cells. As to the kind of experiment: Cellular ATP level (CellTiter-Glo).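 On all read-outs here: ATP quantified by luminescence after lysing the cells in CellTiter-Glo reagent, with compound exposure at 37 °C under 5% CO2.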 As to conditions: for ATP level, compound alone: serum-containing medium. In general terms: ATP-based viability assays read luminescence as a measure of living cells.
Experimental: The ATP levels of cells were measured by lysis in CellTiter-Glo reagent (Promega), and measurement of the luminescence.
After 48 h, 20-80 μl of medium was removed from each well and replaced with 20 μl of each compound diluted to 6× of the final concentration in the culture medium to produce a final volume of 120 μl. The cells were incubated at 37 C in 5% CO2 atmosphere for a time ranging from 15 min to 24 h. The medium was removed and immediately replaced with 50 μl of CellTiter-Glo luminescence cell viability assay reagent (Promega). The cells were lysed by agitation at room temperature for 20 min in the dark. The luminescence was measured using a SpectraMax M5 microplate reader (Molecular Devices) with a 0.5 s acquisition time. The luminescence (RLU) values for control cells ranged from 5000 to 20000 RLU in all experiments, and were scaled by a factor of 0.001 to plot all graphs.
For data set [6], the system named is H295R cells. Kind of data set: Cell morphology by phase contrast microscopy. Type of data set: cell-based. The following applies: 30 h. How it is done: FIG. 4E: […] The cells were cultured with DMSO vehicle (upper images) or with 40 μM ATR-101 (lower images) alone (left images), or in combination with 1.5 mM MβCD (middle images), or in combination with 40 μM cholesterol (right images). Cell morphology was visualized by phase contrast microscopy using a 10× objective. The images are representative of 5 fields under each set of culture conditions. The scale bars denote 100 μm.

Where [7] appears, read: H295R cells, serum-free, 50 μM each glibenclamide, benzamil, zosuquidar, 10 μM PD129337, 4 mM MβCD.
Setting [8] is: H295R cells cultured with the compound together with ATR-101, 4 h.
Where [9] appears, read: H295R cells cultured with the compound together with ATR-101, 24 h.

Entries after “also recorded” stand apart in the source; their conditions may differ.

With `O[C@@H](COc1cccc2ncccc12)CN1CCN([C@@H]2c3ccccc3[C@@H]3[C@H](c4ccccc42)C3(F)F)CC1` [zosuquidar], the MDR1 inhibition result on MDR1 is given as “selectively inhibits MDR1”.
As for `Cc1ccc2oc(CN(Cc3ccccc3)C(=O)Nc3c(F)cc(F)cc3F)c(-c3ccc(Cl)cc3)c2c1` [FR145237], the “adrenalytic effect in LDL deficient animals” value with adrenal cortex was “resistant”.
As for methyl-β-cyclodextrin [MβCD], in the data set with H295R cells [1], the “effect on cholesterol crystallization in cells cultured with ATR-101” value is listed as “did not produce crystals; also recorded: blocked”. Besides, the “effect on cholesterol accumulation caused by ATR-101” value was “prevented cholesterol accumulation; also recorded: blocked the effects of ATR-101 on cholesterol accumulation; also recorded: did not have a higher level of filipin III binding to the plasma membrane” with H295R cells [2] (H295R cells cultured with the compound together with ATR-101, 4 h or 24 h) and “suppressed the cholesterol accumulation” with H295R cells [2] (H295R cells, serum-free medium, 100 μM ATR-101 with 4 mM MβCD, 4 h). Besides, in the data set with H295R cells [2] (H295R cells, serum-free medium containing apoA-I, 4 h), the “cholesterol level (filipin III binding), compound alone” value is “reduced the basal level of cholesterol”. Moreover, the “cholesterol level with combinations of ABC transporter inhibitors” value with H295R cells [2] (setting [7]) is reported as “reduced the cholesterol level”. Further, the “effect on caspase 3/7 activation by ATR-101” value was “prevented ATP depletion and caspase activation; also recorded: suppressed” in the data set on H295R cells [3] (setting [8]); “prevented ATP depletion and caspase activation” in the data set with H295R cells [3] (setting [9]). Moreover, the “caspase 3/7 activity, compound alone” value is on record as “little effect” with H295R cells [3] (H295R cells, 4 h) and “little effect” in the data set on H295R cells [3] (H295R cells, 24 h). Further, the “effect on caspase activation by ATR-101” value in the data set with H295R cells [3] (H295R cells, serum-free medium, 100 μM ATR-101 with 4 mM MβCD) is “suppressed ATP depletion and caspase activation”. Also, the “caspase 3/7 activity with combinations of ABC transporter inhibitors” value with H295R cells [3] (setting [7]) was “suppressed”. In addition, in the data set on H295R cells [4], the “effect on the increase in resazurin fluorescence caused by ATR-101” value was “not inhibited”. Also, the “effect on ATP depletion by ATR-101” value with H295R cells [5] (setting [8]) is on record as “prevented ATP depletion; also recorded: suppressed the depletion of ATP”; with H295R cells [5] (setting [9]) it was “prevented ATP depletion”; with H295R cells [5] (H295R cells, serum-free medium containing apoA-I, together with ATR-101), “suppressed ATP depletion”. The “effect on ATP depletion by ATR-101 in combination with ABC transporter inhibitors, substrates or U18666A” value with H295R cells [5] (H295R cells, 2 mM MβCD) was “suppressed ATP depletion”. For the same molecule, the “ATP level, compound alone” value is given as “little effect” in the data set with H295R cells [5] (H295R cells, 4 h) and “little effect” in the data set with H295R cells [5] (H295R cells, 24 h). Moreover, in the data set with H295R cells [6] (40 μM ATR-101 with 1.5 mM MβCD or 40 μM cholesterol), the “effect on the changes in cell morphology caused by ATR-101” value was “remained flat and adherent for at least 30 h; also recorded: prevented”. In addition, the “cell morphology, compound alone” value in the data set on H295R cells [6] (phase contrast) is listed as “little effect”.
